From ChEMBL document CHEMBL5120836, “Discovery of novel 7,8-dihydropteridine-6(5H)-one-based DNA-PK inhibitors as potential anticancer agents via scaffold hopping strategy” (Eur J Med Chem, 2022)
pIC50: −log10 of the molar value. ≈ marks a conversion by molar mass, not a printed value. Calls of active or inactive are those of the source. The rule behind the calls is not given here.

Experiments:
[1] = Toxicity in BALB/c nude mouse xenografted with human HL-60 cells assessed as MCH level at 100 mg/kg, po qd for 16 days (reference value: 14.1 pg); assay type: organism-based; conditions: in vivo, 384 h, time 16 day
HCT-116 [2] = assay: Induction of apoptosis in human HCT-116 cells assessed as necrotic cells at 1 uM incubated for 24 hrs in presence of 100 nM doxorubicin by AnnexinV-FITC/PI staining based flow cytometry (reference value: 0.031%); assay type: functional
HCT-116 [3] = assay: Inhibition of cell migration in human HCT-116 cells at 1 uM measured after 24 hrs by wound healing assay; assay type: functional, cell-based
[4] = Half life in rat liver microsomes; assay type: ADME, Microsome
MDA-MB-231 [5] = assay: Synergistic antiproliferative activity against human MDA-MB-231 cells assessed as combination index at 50 uM in presence of 0.1 uM doxorubicin by MTT assay; assay type: functional
HCT-116 [6] = assay: Induction of apoptosis in human HCT-116 cells assessed as viable cells at 1 uM incubated for 24 hrs in presence of 100 nM doxorubicin by AnnexinV-FITC/PI staining based flow cytometry (reference value: 93.9%); assay type: functional; conditions: read-out: Activity
[7] = Plasma protein binding in human assessed as free fraction; assay type: ADME, cell-free
[8] = Toxicity in BALB/c nude mouse xenografted with human HL-60 cells assessed as heart morphological alterations at 100 mg/kg, po qd for 16 days by Hematoxylin and Eosin staining based analysis; assay type: organism-based; conditions: in vivo, 384 h, time 16 day
[9] = Tmax in Sprague-Dawley rat at 5 mg/kg, po; assay type: ADME, organism-based; conditions: in vivo
[10] = Toxicity in BALB/c nude mouse xenografted with human HL-60 cells assessed as serum lymphocytes content at 100 mg/kg, po qd for 16 days (reference value: 2.65X10^9/L); assay type: organism-based; conditions: in vivo, 384 h, time 16 day
[11] = Toxicity in BALB/c nude mouse xenografted with human HL-60 cells assessed as MCV level at 100 mg/kg, po qd for 16 days (reference value: 57.2 fL); assay type: organism-based; conditions: in vivo, 384 h, time 16 day
MCF7 [12] = assay: Synergistic antiproliferative activity against human MCF7 cells assessed as combination index at 12.5 uM in presence of 0.1 uM doxorubicin by MTT assay; assay type: functional
HCT-116 [13] = assay: Inhibition of colony formation in human HCT-116 cells at 1 uM in presence of 100 nM doxorubicin; assay type: functional, cell-based
HL-60 = assay: Synergistic antitumor activity against human HL-60 cells xenografted in BALB/c nude mouse assessed as tumor volume at 100 mg/kg, po qd for 16 days co-administered with doxorubicin (reference value: 32.2%); assay type: functional; conditions: HL-60, 384 h, time 16 day
MDA-MB-231 [14] = assay: Synergistic antiproliferative activity against human MDA-MB-231 cells assessed as combination index at 100 uM in presence of 0.1 uM doxorubicin by MTT assay; assay type: functional
[15] = Toxicity in BALB/c nude mouse xenografted with human HL-60 cells assessed as RDW-SD level at 100 mg/kg, po qd for 16 days (reference value: 34 fL); assay type: organism-based; conditions: in vivo, 384 h, time 16 day
[16] = Toxicity in BALB/c nude mouse xenografted with human HL-60 cells assessed as PCT level at 100 mg/kg, po qd for 16 days (reference value: 0.7%); assay type: organism-based; conditions: in vivo, 384 h, time 16 day
[17] = Toxicity in BALB/c nude mouse xenografted with human HL-60 cells assessed as RDW-CV level at 100 mg/kg, po qd for 16 days (reference value: 14.25%); assay type: organism-based; conditions: in vivo, 384 h, time 16 day
[18] = Intrinsic clearance in human liver microsomes; assay type: ADME, Microsome; conditions: read-out: CLH
[19] = Toxicity in BALB/c nude mouse xenografted with human HL-60 cells assessed as serum WBC content at 100 mg/kg, po qd for 16 days (reference value: 3.8X10^9/L); assay type: organism-based; conditions: in vivo, 384 h, time 16 day
[20] = Kinetic solubility of the compound in phosphate-buffered solution at pH 7.4 incubated for 24 hrs by HPLC-MS/MS analysis; assay type: physicochemical; conditions: phosphate buffer, read-out: Kinetic_solubility
[21] = Toxicity in BALB/c nude mouse xenografted with human HL-60 cells assessed as PDW level at 100 mg/kg, po qd for 16 days (reference value: 8.16 fL); assay type: organism-based; conditions: in vivo, 384 h, time 16 day
[22] = AUC (0 to infinity) in Sprague-Dawley rat at 5 mg/kg, po; assay type: ADME, organism-based; set-up: time infinity, dose 5 mg/kg, route po; conditions: in vivo
[23] = target: T1, Phosphatidylinositol 4,5-bisphosphate 3-kinase catalytic subunit delta isoform (Homo sapiens, UniProt O00329); assay: Inhibition of human PI3Kdelta by ADP-Glo assay; assay type: toxicity
T1 sequence (O00329 whole entry): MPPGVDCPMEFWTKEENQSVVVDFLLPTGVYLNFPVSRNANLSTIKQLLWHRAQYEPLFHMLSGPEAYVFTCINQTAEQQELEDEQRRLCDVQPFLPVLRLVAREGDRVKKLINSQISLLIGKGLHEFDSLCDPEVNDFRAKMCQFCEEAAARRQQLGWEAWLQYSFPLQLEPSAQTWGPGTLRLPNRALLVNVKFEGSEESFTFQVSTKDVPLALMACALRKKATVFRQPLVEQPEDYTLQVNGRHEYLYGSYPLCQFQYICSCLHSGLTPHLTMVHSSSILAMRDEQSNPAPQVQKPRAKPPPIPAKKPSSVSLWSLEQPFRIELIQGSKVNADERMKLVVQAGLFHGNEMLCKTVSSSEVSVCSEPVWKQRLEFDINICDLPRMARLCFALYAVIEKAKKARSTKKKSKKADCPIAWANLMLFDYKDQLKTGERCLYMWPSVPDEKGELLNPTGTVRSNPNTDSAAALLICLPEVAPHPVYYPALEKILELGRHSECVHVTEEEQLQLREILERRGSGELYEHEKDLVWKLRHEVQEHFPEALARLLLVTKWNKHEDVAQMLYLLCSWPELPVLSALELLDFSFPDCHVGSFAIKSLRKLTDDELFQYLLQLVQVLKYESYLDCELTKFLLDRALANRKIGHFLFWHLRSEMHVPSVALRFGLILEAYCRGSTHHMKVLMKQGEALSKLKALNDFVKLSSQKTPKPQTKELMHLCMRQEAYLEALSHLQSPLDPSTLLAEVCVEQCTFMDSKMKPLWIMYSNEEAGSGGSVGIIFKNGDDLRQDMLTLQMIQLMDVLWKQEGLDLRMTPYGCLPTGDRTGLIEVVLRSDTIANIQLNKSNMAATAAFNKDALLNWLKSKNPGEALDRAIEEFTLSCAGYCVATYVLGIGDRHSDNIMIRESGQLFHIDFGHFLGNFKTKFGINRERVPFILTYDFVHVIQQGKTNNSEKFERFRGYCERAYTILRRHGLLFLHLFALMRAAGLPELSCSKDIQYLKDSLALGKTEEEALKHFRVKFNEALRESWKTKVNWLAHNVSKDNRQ

HCT-116 [24] = assay: Induction of cell cycle arrest in human HCT-116 cells assessed as increase in accumulation of cells at […] at 1 uM incubated for 24 hrs in presence of 100 nM doxorubicin by PI staining based flow cytometry; assay type: functional
in vitro = conditions: human, Caco-2
Description: Efflux ratio of apparent permeability across basolateral to apical side over apical to basolateral side in human Caco-2 cells

MCF7 [25] = assay: Synergistic antiproliferative activity against human MCF7 cells assessed as combination index at 0.5 uM in presence of 0.1 uM doxorubicin by MTT assay; assay type: functional

half-life [4]: > 145 min
fraction unbound [7]: 0.859
Tmax [9]: 25.2 min
microsomal CLint [18]: < 9.6 µL/min/mg
solubility kinetic at 24 h [20]: 80 µg/mL (≈ 203 µM)
AUC(0-inf) [22]: 3600 ng·h/mL
efflux ratio (in vitro): 4.84
Structure (SMILES): Cc1cc2ncnn2cc1Nc1ncc2c(n1)N(C1CCOCC1)CC(=O)N2C
Activity [1]: 14.2 pg
Activity (HCT-116 [2]): 0.002%
inhibition (HCT-116 [3]): Active
CI (MDA-MB-231 [5]): 0.705
viability at 1 µM (HCT-116 [6]): 79.1%
Activity [8]: Non-Toxic
Activity [10]: 3.2 10^9/L
Activity [11]: 56.1 fL
CI (MCF7 [12]): 0.06131
inhibition (HCT-116 [13]): Active
inhibition in vivo at 100 mg/kg (HL-60): 62.4%
CI (MDA-MB-231 [14]): 0.9806
Activity [15]: 36 fL
Activity [16]: 0.641%
Activity [17]: 15%
Activity [19]: 4.35 10^9/L
Activity [21]: 7.4 fL
pIC50 [23]: 6.12
Activity (HCT-116 [24]): Active
CI (MCF7 [25]): 0.04646
